This test concerns 648629-189-R-J1-PDC spheroids with HUVEC/MSC, viability. The test can be described thus: Anticancer human tumor 648629-189-R-J1-PDC patient-derived bladder carcinoma cell line growth inhibition [PI3K]. The following applies: for viability, T/C: stronger effect = lower value. The text has this:
Combinatorial screen of targeted agents with the PI3K inhibitors inavolisib, alpelisib, duvelisib, and copanlisib in multi-cell type tumor spheroids
A high-throughput screen of multi-cell type tumor spheroids was designed to identify active combinations of targeted small molecules and PI3K pathway inhibitors. Complex spheroids include a stromal component modeled by human endothelial cells (HUVEC) and fibroblasts modeled by human mesenchymal stem cells (MSCs). The concentration ranges selected for each drug and investigational agent were based upon clinically achievable concentrations if the clinical Cmax of the agent was known.
Compounds. The drugs and investigational agents: inavolisib (NSC800729), alpelisib (NSC765974), duvelisib (NSC772469), copanlisib (NSC816437), ipatasertib (NSC767898), afuresertib (NSC778305), talazoparib (NSC767125), sapanisertib (NSC764658), selumetinib (NSC741078), tovorafenib (DAY101, NSC766906), vemurafenib (NSC761431), ravoxertinib (NSC781343), sotorasib (NSC818433), MRTX1133 (NSC 836407), abemaciclib (NSC 768073), palbociclib (NSC758247), venetoclax (NSC 766270), SY5609 (NSC837396), enzalutamide (NSC755605), and darolutamide (NSC825331), were obtained from the National Cancer Institute (NCI) Developmental Therapeutics Program Chemical Repository. The FDA-approved anticancer drug set is available from the NCI Developmental Therapeutics Program. […] The stock solutions were prepared in dimethyl sulfoxide (DMSO, Sigma-Aldrich, St. Louis, MO, cat. D2650) at 800-fold the tested concentration and stored at -70 degrees C prior to their use. All drugs and investigational agents were tested over a range starting from a high concentration at or near the clinical Cmax and decreasing in half-log increments. If the clinical Cmax for an agent had not been determined, the highest concentration tested was 10 microM.
Cell Culture. All cells were maintained in an incubator at 37 degrees C and 5% CO2 with 95% humidity. The PDC lines were cultured according to standard operating procedures established by the NCI PDMR (https://pdmr.cancer.gov/sops/default.htm). All PDCs were thawed and cultured in Matrigel-coated flasks prepared with a working solution of 1X Ham's F-12 nutrient mix, without supplementation (Invitrogen, Waltham, MA, cat. 11765054), 100 U/mL penicillin-streptomycin (Invitrogen, cat. 15140122), and 2.5% Matrigel (Corning Inc., Corning, NY, cat. 354248) for the first three passages. The 354836-022-R-J1-PDC, 475296-252-R-J1-PDC, and 997726-040-R-J2-PDC lines were cultured in 6A media, which includes advanced DMEM/F-12 (Thermo Fisher Scientific, cat. 12634028), 10 mM HEPES (Thermo Fisher Scientific, cat. 15630080), 1X GlutaMAX supplement (Thermo Fisher Scientific, cat. 35050061), 0.1 mg/mL primocin (InvivoGen, San Diego, CA, cat. ant-pm-2), 10% defined fetal bovine serum, heat inactivated (HyClone Laboratories Inc., Logan, UT, cat. SH30070.03HI), 50% L-WRN conditioned media (ATCC, cat. CRL-3276), 1.25 mM N-Acetyl-L-cysteine (Sigma-Aldrich, cat. A9165), 10 mM nicotinamide (Sigma-Aldrich, cat. N0636), 1X B-27 supplement (Thermo Fisher Scientific, cat. 17504044), 1X N-2 supplement (Thermo Fisher Scientific, cat. 17502048), and 10 microM Y-27632 dihydrochloride (Tocris Bioscience, Bristol, United Kingdom, cat. 1254). The 624824-186-R-J2-PDC line was cultured in 6C/Colon 1B media, which includes all 6A media components plus 50 ng/mL human EGF recombinant protein (Thermo Fisher Scientific, cat. PHG0311). […]

“And” between values parts separate entries of the source, which are not always exact repeats. Equal entries are not always repeated.

The record followed here is PubChem BioAssay AID1963974 (Molecular Pharmacology Branch, DTP, NCI, 2024).
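Note: spheroids exposed to agents for seven days before reading.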
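Throughout, for viability, T/C: percent of vehicle control luminescence where 100% = DMSO treated spheroids.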

Take `Cn1nccc1Nc1nccc(-c2ccn(C(CO)c3ccc(Cl)c(F)c3)c(=O)c2)n1` (stereo not drawn) + CC(Nc1ncnc2nc[nH]c12)c1cc2cccc(Cl)c2c(=O)n1-c1ccccc1: the IC50 (in general, the concentration that gives 50% inhibition) is greater than 10 µM (curve of first compound, second compound 0.0316 µM); greater than 10 µM (curve of first compound, second compound 0.1 µM); greater than 10 µM (curve of first compound, second compound 0.316 µM); greater than 10 µM (curve of first compound, second compound 1 µM); greater than 10 µM (curve of first compound, second compound 3.16 µM); greater than 10 µM (curve of first compound, second compound 10 µM). In addition, the viability, T/C – broadly, the result in the treated group divided by that in the control group, in per cent – was 104% (second compound 0.0316 µM, first compound 0.0316 µM); 95.8% (second compound 0.0316 µM, first compound 0.1 µM); 101% (second compound 0.0316 µM, first compound 0.316 µM); 110% (second compound 0.0316 µM, first compound 1 µM); 94% (second compound 0.0316 µM, first compound 3.16 µM); 86.5% (second compound 0.0316 µM, first compound 10 µM). In addition, the viability, T/C is, setting by setting: (second compound 0.1 µM, first compound 0.0316 µM) 101%; (second compound 0.1 µM, first compound 0.1 µM) 88.9%; (second compound 0.1 µM, first compound 0.316 µM) 102%; (second compound 0.1 µM, first compound 1 µM) 105%; (second compound 0.1 µM, first compound 3.16 µM) 100%; (second compound 0.1 µM, first compound 10 µM) 88.4%. The viability, T/C was 116% (second compound 0.316 µM, first compound 0.0316 µM); 96.2% (second compound 0.316 µM, first compound 0.1 µM); 96.8% (second compound 0.316 µM, first compound 0.316 µM); 88.7% (second compound 0.316 µM, first compound 1 µM); 101% (second compound 0.316 µM, first compound 3.16 µM); 80.4% (second compound 0.316 µM, first compound 10 µM). For the same compound, the viability, T/C reads like this: (second compound 1 µM, first compound 0.0316 µM) 104%; (second compound 1 µM, first compound 0.1 µM) 93.9%; (second compound 1 µM, first compound 0.316 µM) 101%; (second compound 1 µM, first compound 1 µM) 105%; (second compound 1 µM, first compound 3.16 µM) 102%; (second compound 1 µM, first compound 10 µM) 79.3%. The viability, T/C reads like this: (second compound 3.16 µM, first compound 0.0316 µM) 88.5%; (second compound 3.16 µM, first compound 0.1 µM) 103%; (second compound 3.16 µM, first compound 0.316 µM) 100%; (second compound 3.16 µM, first compound 1 µM) 100%; (second compound 3.16 µM, first compound 3.16 µM) 93%; (second compound 3.16 µM, first compound 10 µM) 73.6%. The viability, T/C by setting is: (second compound 10 µM, first compound 0.0316 µM) 86.5%; (second compound 10 µM, first compound 0.1 µM) 80.6%; (second compound 10 µM, first compound 0.316 µM) 79.9%; (second compound 10 µM, first compound 1 µM) 90.8%; (second compound 10 µM, first compound 3.16 µM) 97.7%; (second compound 10 µM, first compound 10 µM) 78.5%.

Take `CC(C)NCC(C(=O)N1CCN(c2ncnc3c2C(C)CC3O)CC1)c1ccc(Cl)cc1` (stereo not drawn): the viability, T/C is 95.2% and 106% (2×) and 98.2% (compound 0.0316 µM); 86% [middle of 4 runs] (compound 0.316 µM); 48% [middle of 4 runs] (compound 1 µM); 29.7% [middle of 4 runs] (compound 3.16 µM); 16.6% and 15.3% (2×) and 14.4% (compound 10 µM). In addition, the IC50 (curve of compound) is 1.06 µM [middle of 4 runs].
